Earlier results in patent US11590237B2, “Pharmaceutical formulation comprising incretin-insulin conjugates” (Merck Sharp & Dohme Corp., priority 2017, dated 2023).

Settings: literature data [21]

Number of monomers in oligomers: 6-12 monomers
SMILES: CCCCCCCCCCCCCCCC(=O)N[C@@H](CCC(=O)NCCCC[C@H](NC(=O)[C@H](C)NC(=O)[C@H](C)NC(=O)[C@H](CCC(N)=O)NC(=O)CNC(=O)[C@H](CCC(=O)O)NC(=O)[C@H](CC(C)C)NC(=O)[C@H](Cc1ccc(O)cc1)NC(=O)[C@H](CO)NC(=O)[C@H](CO)NC(=O)[C@@H](NC(=O)[C@H](CC(=O)O)NC(=O)[C@H](CO)NC(=O)[C@@H](NC(=O)[C@H](Cc1ccccc1)NC(=O)[C@@H](NC(=O)CNC(=O)[C@H](CCC(=O)O)NC(=O)[C@H](C)NC(=O)[C@@H](N)Cc1cnc[nH]1)[C@@H](C)O)[C@@H](C)O)C(C)C)C(=O)N[C@@H](CCC(=O)O)C(=O)N[C@@H](Cc1ccccc1)C(=O)N[C@H](C(=O)N[C@@H](C)C(=O)N[C@@H](Cc1c[nH]c2ccccc12)C(=O)N[C@@H](CC(C)C)C(=O)N[C@H](C(=O)N[C@@H](CCCNC(=N)N)C(=O)NCC(=O)N[C@@H](CCCNC(=N)N)C(=O)NCC(=O)O)C(C)C)[C@@H](C)CC)C(=O)O [liraglutide]
